Results published in patent US9302999B2, “Substituted triazoles as herbicides” (E. I. DU PONT DE NEMOURS AND COMPANY, priority 2012, dated 2016).

Assays:
Assay type in all cases: in vivo
Settings in all cases: Preemergence
[1] = tested on: corn (Zea mays); experiment: Test F pre-/postemergence: corn
In short: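 0–100 visual control scores, taken 14–21 d after application in the greenhouse. Preemergence treatment was made to silt loam soil at sowing. Postemergence sprays hit 1- to 4-leaf plants (2–18 cm) in peat/vermiculite mix. Surfactant-containing non-phytotoxic solvent served as the vehicle.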

[2] = tested on: ragweed (common ragweed, Ambrosia elatior); experiment: Test F pre-/postemergence: ragweed
Excerpt: (§1) Seeds of plant species selected from corn (Zea mays), soybean (Glycine max), velvetleaf (Abutilon theophrasti), lambsquarters (Chenopodium album), poinsettia, wild (wild poinsettia, Euphorbia heterophylla), pigweed, palmer (palmer pigweed, Amaranthus palmeri), waterhemp (common waterhemp, Amaranthus rudis), surinam grass (Brachiaria decumbens), crabgrass, Brazil (Brazilian crabgrass, Digitaria horizontalis), panicum, fall (fall panicum Panicum dichotomiflorum), crabgrass, large (large crabgrass, Digitaria sanguinalis), foxtail, giant (giant foxtail, Setaria faberii), foxtail, green (green foxtail Setaria viridis), goosegrass (Eleusine indica), ragweed (common ragweed, Ambrosia elatior), barnyardgrass (Echinochloa crus-galli), sandbur (southern sandbur, Cenchrus echinatus), arrowleaf sida (Sida rhombifolia), ryegrass, Italian (Italian ryegrass, Lolium multiflorum), dayflower, VA (Virginia (VA) dayflower, Commelina virginica), field bindweed (Convolvulus arvensis), cocklebur (common cocklebur, Xanthium strumarium), morningglory (Ipomoea coccinea), nightshade (eastern black nightshade, Solanum ptycanthum), kochia (Kochia scoparia), nutsedge, yellow (yellow nutsedge, Cyperus esculentus), johnsongrass (Sorghum halepense), smartweed (ladysthumb smartweed, Polygonum persicaria), and beggarticks (hairy beggarticks, Bidens pilosa), were planted into a silt loam soil and treated preemergence with test chemicals formulated in a non-phytotoxic solvent mixture which included a surfactant. At the same time, plants selected from these crop and weed species and also pigweed (Amaranthus retroflexus), waterhemp_RES1 (ALS/Triazine resistant common waterhemp, Amaranthus rudis) and waterhemp_RES2 (ALS/HPPD resistant common waterhemp, Amaranthus rudis) were planted in pots containing a planting medium comprising spaghnum peat moss, vermiculite, wetting agent and starter nutrients treated with postemergence applications of some of the test chemicals formulated in the same manner. Plants ranged in height from 2 to 18 cm for postemergence treatments (1- to 4-leaf stage).
(§2) Treated plants and controls were maintained in a greenhouse for 14 to 21 days, after which time all species were compared to controls and visually evaluated. Plant response ratings, summarized in Table E, are based on a scale of 0 to 100 where 0 is no effect and 100 is complete control. A dash (-) response means no test result.

[3] = tested on: dayflower, VA (Virginia (VA) dayflower, Commelina virginica); experiment: Test F pre-/postemergence: dayflower, VA
Excerpt: as §1, §2

[4] = tested on: goosegrass (Eleusine indica); experiment: Test F pre-/postemergence: goosegrass
Excerpt: as §1, §2

[5] = tested on: lambsquarters (Chenopodium album); experiment: Test F pre-/postemergence: lambsquarters
Excerpt: as §1, §2

[6] = 16 g ai/ha, scale 0 to 100, 0 no effect, 100 complete control
[7] = 31 g ai/ha, scale 0 to 100, 0 no effect, 100 complete control

Row | Structure (SMILES) | Plant response rating, Corn [1, 6] | Plant response rating, Corn [1, 7] | Plant response rating, Corn ([1]; 62 g ai/ha, scale 0 to 100) | Plant response rating, Corn ([1]; 125 g ai/ha, scale 0 to 100) | Plant response rating, Corn ([1]; 250 g ai/ha, scale 0 to 100) | Plant response rating, Ragweed [2, 6] | Plant response rating, Ragweed [2, 7] | Plant response rating, Ragweed ([2]; 125 g ai/ha, scale 0 to 100) | Plant response rating, Ragweed ([2]; 250 g ai/ha, scale 0 to 100) | Plant response rating, Dayflower, VA [3, 6] | Plant response rating, Dayflower, VA [3, 7] | Plant response rating, Dayflower, VA ([3]; 62 g ai/ha, scale 0 to 100) | Plant response rating, Dayflower, VA ([3]; 125 g ai/ha, scale 0 to 100) | Plant response rating, Dayflower, VA ([3]; 250 g ai/ha, scale 0 to 100) | Plant response rating, Goosegrass [4, 6] | Plant response rating, Goosegrass [4, 7] | Plant response rating, Goosegrass ([4]; 62 g ai/ha, scale 0 to 100) | Plant response rating, Goosegrass ([4]; 125 g ai/ha, scale 0 to 100) | Plant response rating, Goosegrass ([4]; 250 g ai/ha, scale 0 to 100) | Plant response rating, Lambsquarters [5, 6] | also measured
1 | COc1nn(-c2cccc(F)c2)nc1Cc1ccnc(C(F)(F)F)c1 [Compound 139] | 0 | 0 | 0 | 0 | 5 | 0 | 0 | 0 | 0 | 0 | 5 | 30 | 60 | 65 | 5 | 70 | 80 | 98 | 100 | 0 | Plant response rating, Lambsquarters [5, 7]: 20; Plant response rating, Lambsquarters ([5]; 62 g ai/ha, scale 0 to 100): 65; Plant response rating, Lambsquarters ([5]; 125 g ai/ha, scale 0 to 100): 90; Plant response rating, Lambsquarters ([5]; 250 g ai/ha, scale 0 to 100): 98
2 | Cc1nn(-c2ccc(F)cc2F)nc1Oc1ccnc(C(F)(F)F)c1 [Compound 146] | 0 | 0 | 0 | 0 | 0 | 0 | 0 | 0 | 25 | 0 | 0 | 10 | 35 | 35 | 0 | 40 | 70 | 75 | 98 | 0 | Plant response rating, Lambsquarters [5, 7]: 0; Plant response rating, Lambsquarters ([5]; 62 g ai/ha, scale 0 to 100): 40; Plant response rating, Lambsquarters ([5]; 125 g ai/ha, scale 0 to 100): 98; Plant response rating, Lambsquarters ([5]; 250 g ai/ha, scale 0 to 100): 98
